Data set [1] relates to kidneys of P388 leukemic BDFl mice. Nature of the data set: Histological evaluation of renal damage. It counts as in vivo. Here is the method:
Stromal connective, wherein rare and scattered fibroblasts were detected, appeared remarkably thickened with resulting intertubular space increase. Renal corpuscle morphology appeared in a good preservation state in the components thereof and a slight increase of the glomerular chamber was recognized in few corpuscles only.
Immediately after withdrawal, renal parenchyma was fixed with 2.5% glutaraldehyde in 0.1 M Na cacodylate buffer (pH = 7.4) for 120 min.
After washing in the same buffer, the samples were dehydrated with ethanol and embedded in Epon 812. LKB Ultratom III microtome 2 µm sections were stained with aqueous 1% toluidine blue.

A further data set concerns P388 leukemia. Nature of the data set: Therapeutic activity in P388 leukemia treatment (survival). It counts as in vivo, BDFl female mice. The note with it: for ILS (%): survival increase vs untreated controls. The procedure:
The following tables and the enclosed figures refer to experiments carried out on BDFl mice inoculated with P388 leukemic cells and wherein the effect of DDP-Pd.HCl combination is compared, in terms of toxicity and therapeutic efficacy, with the one of the different components. From Pd-HCl toxicity results, which are reported in Table 1, the 50 mg/kg of Pd.HCl dose was selected for the investigations suited for the evaluation of DDP-Pd.HCl combination toxicity and therapeutic efficacy.

Where [2] appears, read: DDP 8 mg/kg i.p. days 1 and 5, vehicle H2O.
[3] abbreviates: DDP 16 mg/kg i.p. day 1, vehicle 0,9% NaCl.
Setting [4] is: DDP 16 mg/kg i.p. day 1, vehicle H2O.
Where [5] appears, read: Pd.HCl 50 mg/kg in H2O i.v., no DDP.

Structures are written as SMILES. Structures can show the parent of a compound that is named as a salt.

With `N.N.[Cl][Pt][Cl]` [DDP, Cisplatin], the “Hystological evaluation of renal damage” value in data set [1] (8 mg/kg of DDP alone at days 1, 5 and 9, mice killed the 10th day, cortical zone) is recorded as “renal parenchyma alterations”. Besides, the results for the “Survivors on day 60 (alive/treated)” value with P388 leukemia (setting [2]), in the data set on P388 leukemia (setting [3]) and in the data set on P388 leukemia (setting [4]) were 0/8, 2/10 and 0/10, respectively. Further, the “MST” value in the data set on P388 leukemia (DDP 8 mg/kg i.p. days 1 and 5, vehicle H2O, median survival time, untreated controls 12 days) came to 7 days; in the data set with P388 leukemia (DDP 16 mg/kg i.p. day 1, vehicle 0,9% NaCl, median survival time, untreated controls 12 days), 22 days; with P388 leukemia (DDP 16 mg/kg i.p. day 1, vehicle H2O, median survival time, untreated controls 12 days) it was 5 days. Further, the “ILS (%)” value in the data set with P388 leukemia (setting [2]) is on record as -42%; in the data set with P388 leukemia (setting [3]) it was 83%; in the data set with P388 leukemia (setting [4]) it was -58%.

For the molecule `CCN(CC)CCNC(=O)c1ccc(N)cc1` [Pd.HCl, procainamide hydrochloride], the “Hystological evaluation of renal damage” value in data set [1] (mouse, in vivo, 50 mg/kg) is given as “a picture similar to the one observed with DDP only”. In the data set with P388 leukemia (setting [5]), the “MST” value was 13 days, the “Survivors on day 60 (alive/treated)” value is given as 0/8 and the “ILS (%)” value is reported as 8,3%. The antitumor activity entry in the data set on P388 leukemia (procainamide by itself) is “no antitumor activity”.

These data come from patent publication EP0639978B1, “PHARMACEUTICAL COMBINATION HAVING ANTINEOPLASTIC ACTIVITY” (priority 1991, dated 1992).
